Each block holds one molecule with its values, some of them ahead of it.
Legend:
[1] = Stability of acyl-CoAs in TCA and mutase assay buffer (HPLC); type: physicochemical; conditions: mutase assay conditions, 30° C.
Description: To test whether acyl-CoAs degrade in TCA, the following tests were conducted. The CoA mix consisted of 1.6 mM each of malonyl-, methylmalonyl-, succinyl-, acetyl-, and propionyl-CoA, plus 0.5 mM CoA. An aliquot (10 μL) of this mix was added to 100 μL 10% TCA, 50 μL were immediately injected to the HPLC for CoA analysis, and the remainder was promptly frozen on dry ice. The frozen portion was then thawed and loaded immediately to the HPLC. Again, 10 μL of the CoA mix were added to 100 μL 10% TCA, 50 μL were left on ice for 15 minutes and then injected to the HPLC, the remainder was left at 4° C. overnight and injected to the HPLC the next morning. The area under each CoA peak was noted. This same procedure was followed but using a mixture of TCA and buffer A from the mutase assay.
The CoA analysis described here is carried out on cells which are lysed in 10% TCA. […] Thus, the CoAs are stable in TCA and in the mutase assay buffer after the cells are lysed or after the assays are completed, and prior to HPLC analysis.
Although the CoAs are stable in TCA and buffer at 4° C., they degraded at 30° C., the temperature at which the mutase assay was performed. In five minutes under the assay conditions, about 4% of the methylmalonyl-CoA hydrolyzed to CoA. […] Thus, the mutase assay is suboptimal for extremely quantitative results.

[2] = Spontaneous chemical epimerization between (R)- and (S)-mm-CoA; type: physicochemical; conditions: in 15 minutes
[3] = Epimerase assay coupled to transcarboxylase and malate dehydrogenase, crude E. coli extracts; type: biochemical; conditions: 30° C.
Description: Cells of strain BL2] (DE3) containing pET-epsherm, pET-epcoel, pET-epsub, or a control pET vector were grown overnight at 37° C. in 2 mL LB containing 100 μg/ml carbenicillin. The starter culture (250 μL) was used to inoculate 25 mL LB containing 100 μg/ml carbenicillin. The cultures were grown at 37° C. to an OD of approximately 0.4, then induced with IPTG to 1 mM final concentration and grown for an additional 3 hours at 30° C. The cells were collected by centrifugation at 4000 rpm for 10 minutes, and the pellets were stored at −80° C. prior to assay. […]
Epimerase activity was measured in crude extracts of E. coli harboring either pET-epsherm, pET-epcoel, pET-epsub, or a control pET vector. The epimerase assay couples transcarboxylase, which converts (S)-methylmalonyl-CoA into propionyl-CoA, to malate dehydrogenase, which converts NADH into NAD^+, producing a decrease in absorbance at 340 nm. […] When an extract containing epimerase is added to the assay, the (R)-isomer is converted to (S)—, resulting in a further decrease in absorbance. […]
The pellet from approximately 20 mL of culture was thawed and resuspended in 2 mL 1X assay buffer containing a protease inhibitor cocktail tablet. […] The reaction was initiated with (2R,2S)-methylmalonyl-CoA and the decrease in absorbance at 340 nm was monitored, reflecting the disappearance of the 2S isomer. […]

rate of hydrolysis relative to methylmalonyl-CoA [1]: comparable rate
Molecule: CC(C)(COP(=O)(O)OP(=O)(O)OC[C@H]1O[C@@H](n2cnc3c(N)ncnc32)[C@H](O)[C@@H]1OP(=O)(O)O)[C@@H](O)C(=O)NCCC(=O)NCCSC(=O)CCC(=O)O [succinyl-CoA]

spontaneous chemical epimerization between (R)- and (S)-mm-CoA [2]: approximately 3%
hydrolyzed to CoA ([1]; five minutes): about 4%
Molecule: CC(C(=O)O)C(=O)SCCNC(=O)CCNC(=O)[C@H](O)C(C)(C)COP(=O)(O)OP(=O)(O)OC[C@H]1O[C@@H](n2cnc3c(N)ncnc32)[C@H](O)[C@@H]1OP(=O)(O)O (stereo partly shown) [methylmalonyl-CoA]

B1: P. shermanii epimerase: methylmalonyl-CoA epimerase from Propionibacterium shermanii expressed in E. coli, SEQ ID NO: 2 (protein)
chain: MSNEDLFICIDHVAYACPDADEASKYYQETFGWHELHREENPEQGVVEIMMAPAAKLTEHMTQVQVMAPLNDESTVAKWLAKHNGRAGLHHMAWRVDDIDAVSATLRERGVQLLYDEPKLGTGGNRINFMHPKSGKGVLIELTQYPKN
modifications: Deduced amino acid sequence of the epimerase gene sequence
specific activity [3]: approximately 30 units/mg

From patent publication US7291486B2, “Genetically modified cells and methods for converting (R)-methylmalonyl CoA to (S)-methylmalonyl CoA” (KOSAN Biosciences, Inc., priority 1999, dated 2007)
